The numbers were not newly measured in patent publication US20220062352A1, “COMPOSITIONS FOR THE TREATMENT OF CONDITIONS” (Demata Therapeutics, LLC, priority 2018, published 2022), which cites them from elsewhere.

The test system of this data set is acne vulgaris subjects.

Regarding `CC(=O)N[C@H]1C(O)O[C@H](CO)[C@@H](O)[C@@H]1O` (stereo partly drawn) [NAG, N-acetyl-D-glucosamine], the “tolerability versus 10% benzoyl peroxide” value (acne vulgaris subjects) is reported as “better tolerated by the subjects than 10% benzoyl peroxide”. Further, for the setting “over an 8-week period”, the “number of acne lesions” value is on record as “quickly reduced the number of acne lesions”.
